Reference: ChEMBL document CHEMBL3860108, “Substituent Effects on Drug-Receptor H-bond Interactions: Correlations Useful for the Design of Kinase Inhibitors” (J Med Chem, 2016)

The compounds below were run against T1, Serine/threonine-protein kinase TNNI3K (Homo sapiens, UniProt Q59H18) (assay: Displacement of 5-({[2-({[3-({4-[(5-hydroxy-2-methylphenyl)amino]-2-pyrimidinyl}amino)phenyl]carbonyl}amino)-ethyl]amino}carbonyl)-2-(6-hydroxy-3-oxo-3H-xanthen-9-yl)benzoic acid from His6-MBP-TEV-full length human TNNI3K expressed in Baculovirus expression system after 60 mins by fluorescence polarization assay).
T1 sequence (Q59H18 whole entry): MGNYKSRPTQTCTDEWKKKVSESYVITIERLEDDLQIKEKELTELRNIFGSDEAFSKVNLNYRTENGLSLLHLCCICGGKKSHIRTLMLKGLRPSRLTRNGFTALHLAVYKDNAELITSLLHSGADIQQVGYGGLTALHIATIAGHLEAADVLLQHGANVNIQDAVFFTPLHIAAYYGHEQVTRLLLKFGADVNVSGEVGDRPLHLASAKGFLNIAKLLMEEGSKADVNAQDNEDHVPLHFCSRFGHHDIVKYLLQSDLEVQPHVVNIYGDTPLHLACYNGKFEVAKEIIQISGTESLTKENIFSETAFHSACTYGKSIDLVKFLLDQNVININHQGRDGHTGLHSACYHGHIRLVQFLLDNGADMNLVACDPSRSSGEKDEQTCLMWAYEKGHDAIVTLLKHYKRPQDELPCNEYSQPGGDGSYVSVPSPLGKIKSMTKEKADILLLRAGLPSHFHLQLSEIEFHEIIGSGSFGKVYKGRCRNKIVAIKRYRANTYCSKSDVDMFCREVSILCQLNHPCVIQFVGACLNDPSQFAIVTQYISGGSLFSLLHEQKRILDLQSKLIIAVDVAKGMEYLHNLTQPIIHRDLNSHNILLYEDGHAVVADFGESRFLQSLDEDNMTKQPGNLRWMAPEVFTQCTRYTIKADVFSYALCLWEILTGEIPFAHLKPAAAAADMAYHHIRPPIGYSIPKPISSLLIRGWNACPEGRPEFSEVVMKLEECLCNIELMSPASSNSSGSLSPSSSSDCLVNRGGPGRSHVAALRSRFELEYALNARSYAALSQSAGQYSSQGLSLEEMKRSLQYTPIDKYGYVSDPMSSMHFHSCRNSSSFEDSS

SMILES	IC50
CCCNc1ccc(S(=O)(=O)NC)cc1Nc1ncnc2[nH]ccc12	2500 nM
CNS(=O)(=O)c1ccc(N2CCCC2C)c(Nc2cc(Nc3ccc(Cl)cc3)ncn2)c1 (stereo not given)	250 nM
CNS(=O)(=O)c1ccc(N)c(Nc2cc(Nc3ccc(Cl)cc3)ncn2)c1	800 nM
CNS(=O)(=O)c1ccc(N2CCC[C@@H]2C(F)(F)F)c(Nc2cc(Nc3ccc(Cl)cc3)ncn2)c1	63 nM
CNS(=O)(=O)c1ccc(N(C)C)c(Nc2ncnc3ccc([N+](=O)[O-])cc23)c1	2500 nM
CCNc1ccc(S(=O)(=O)NC)cc1Nc1ncnc2[nH]ccc12	2500 nM
CNS(=O)(=O)c1ccc(N2CCCC2)c(Nc2cc(Nc3ccc(Cl)cc3)ncn2)c1	1300 nM
CNS(=O)(=O)c1cccc(Nc2cc(Nc3ccc(Cl)cc3)ncn2)c1	80 nM
CNS(=O)(=O)c1ccc(N2CCC(F)(F)C2)c(Nc2cc(Nc3ccc(Cl)cc3)ncn2)c1	1000 nM
CNS(=O)(=O)c1ccc(N2CCCC2)c(Nc2ncnc3[nH]ccc23)c1	320 nM
CCCNc1ccc(S(=O)(=O)NC)cc1Nc1cc(Nc2ccc(Cl)cc2)ncn1	1600 nM
CNS(=O)(=O)c1ccc(SC)c(Nc2ncnc3[nH]ccc23)c1	130 nM
CNS(=O)(=O)c1ccc(Cl)c(Nc2cc(Nc3ccc(Cl)cc3)ncn2)c1	130 nM
CNS(=O)(=O)c1ccc(OC)c(Nc2ncnc3[nH]ccc23)c1	100 nM
CNS(=O)(=O)c1ccc(O)c(Nc2cc(Nc3ccc(Cl)cc3)ncn2)c1	160 nM
CNS(=O)(=O)c1ccc(N(C)C)c(Nc2cc(Nc3ccc(Cl)cc3)ncn2)c1	80 nM

SMILES	IC50
CCN(C)c1ccc(S(=O)(=O)NC)cc1Nc1cc(Nc2ccc(Cl)cc2)ncn1	63 nM
CNS(=O)(=O)c1ccc(SC)c(Nc2cc(Nc3ccc(Cl)cc3)ncn2)c1	400 nM
CNS(=O)(=O)c1ccc(F)c(Nc2cc(Nc3ccc(Cl)cc3)ncn2)c1	200 nM
CNS(=O)(=O)c1ccc(-c2ccccc2)c(Nc2ncnc3[nH]ccc23)c1	200 nM
CNS(=O)(=O)c1ccc(N2CCC(F)(F)C2)c(Nc2ncnc3[nH]ccc23)c1	130 nM
CNS(=O)(=O)c1ccc(N(C)C)c(Nc2ncnc3ncccc23)c1	5000 nM
CNc1ccc(S(=O)(=O)NC)cc1Nc1cc(Nc2ccc(Cl)cc2)ncn1	2500 nM
CNS(=O)(=O)c1ccc(C)c(Nc2cc(Nc3ccc(Cl)cc3)ncn2)c1	160 nM
CNS(=O)(=O)c1ccc(OC)c(Nc2cc(Nc3ccc(Cl)cc3)ncn2)c1	50 nM
CCNc1ccc(S(=O)(=O)NC)cc1Nc1cc(Nc2ccc(Cl)cc2)ncn1	3200 nM
CNS(=O)(=O)c1ccc(F)c(Nc2ncnc3[nH]ccc23)c1	250 nM
CNS(=O)(=O)c1ccc(OC(F)(F)F)c(Nc2ncnc3[nH]ccc23)c1	50 nM
CNS(=O)(=O)c1ccc(N2CCCC2C)c(Nc2ncnc3[nH]ccc23)c1 (stereo not given)	130 nM
CNS(=O)(=O)c1ccc(N(C)C)c(Nc2ncnc3ccc(Cl)cc23)c1	400 nM
CNS(=O)(=O)c1ccc(N2C(C)CCC2C)c(Nc2cc(Nc3ccc(Cl)cc3)ncn2)c1 (stereo not given)	80 nM

Now from value to compound:

IC50	SMILES
40 nM	CNS(=O)(=O)c1ccc(N(C)CC(F)(F)F)c(Nc2cc(Nc3ccc(Cl)cc3)ncn2)c1
10 nM	CNS(=O)(=O)c1ccc(N(C)CC(F)(F)F)c(Nc2ncnc3[nH]ccc23)c1
16 nM	CNS(=O)(=O)c1ccc(OCC(F)(F)F)c(Nc2ncnc3[nH]ccc23)c1
13 nM	CNS(=O)(=O)c1ccc(N2CCCCC2)c(Nc2ncnc3[nH]ccc23)c1
40 nM	CNS(=O)(=O)c1ccc(O)c(Nc2ncnc3[nH]ccc23)c1
32 nM	CCN(C)c1ccc(S(=O)(=O)NC)cc1Nc1ncnc2[nH]ccc12
50 nM	CCOc1ccc(S(=O)(=O)NC)cc1Nc1cc(Nc2ccc(Cl)cc2)ncn1
20 nM	CNS(=O)(=O)c1ccc(N2C(C)CCC2C)c(Nc2ncnc3[nH]ccc23)c1 (stereo not given)
10 nM	CNS(=O)(=O)c1ccc(N(C)C)c(Nc2ncnc(Nc3ccc(Cl)cc3)n2)c1
50 nM	CNS(=O)(=O)c1ccc(N(C)C)c(Nc2ncnc3[nH]c4ccccc4c23)c1
< 10 nM	CNS(=O)(=O)c1ccc(N2CCCC(F)(F)C2)c(Nc2ncnc3[nH]ccc23)c1
25 nM	CNS(=O)(=O)c1ccc(OCC(F)(F)F)c(Nc2cc(Nc3ccc(Cl)cc3)ncn2)c1
16 nM	CNS(=O)(=O)c1ccc(N(C)C)c(Nc2ncnc3[nH]cnc23)c1
< 10 nM	CNS(=O)(=O)c1ccc(N(C)C)c(Nc2ncnc3[nH]cc(-c4ccco4)c23)c1
32 nM	CCOc1ccc(S(=O)(=O)NC)cc1Nc1ncnc2[nH]ccc12
32 nM	CNS(=O)(=O)c1ccc(OC(F)(F)F)c(Nc2cc(Nc3ccc(Cl)cc3)ncn2)c1
40 nM	CNS(=O)(=O)c1ccc(N2CCCC(F)(F)C2)c(Nc2cc(Nc3ccc(Cl)cc3)ncn2)c1

Each compound was assayed against Serine/threonine-protein kinase B-raf (Homo sapiens, UniProt P15056, V600E) (assay: Inhibition of His6-tagged full length BRAF V600E mutant (2 to 766 residues) (unknown origin) expressed in Baculovirus expression system by BRAMA method).
Chain of Serine/threonine-protein kinase B-raf (P15056 2-766 V600E limits assumed): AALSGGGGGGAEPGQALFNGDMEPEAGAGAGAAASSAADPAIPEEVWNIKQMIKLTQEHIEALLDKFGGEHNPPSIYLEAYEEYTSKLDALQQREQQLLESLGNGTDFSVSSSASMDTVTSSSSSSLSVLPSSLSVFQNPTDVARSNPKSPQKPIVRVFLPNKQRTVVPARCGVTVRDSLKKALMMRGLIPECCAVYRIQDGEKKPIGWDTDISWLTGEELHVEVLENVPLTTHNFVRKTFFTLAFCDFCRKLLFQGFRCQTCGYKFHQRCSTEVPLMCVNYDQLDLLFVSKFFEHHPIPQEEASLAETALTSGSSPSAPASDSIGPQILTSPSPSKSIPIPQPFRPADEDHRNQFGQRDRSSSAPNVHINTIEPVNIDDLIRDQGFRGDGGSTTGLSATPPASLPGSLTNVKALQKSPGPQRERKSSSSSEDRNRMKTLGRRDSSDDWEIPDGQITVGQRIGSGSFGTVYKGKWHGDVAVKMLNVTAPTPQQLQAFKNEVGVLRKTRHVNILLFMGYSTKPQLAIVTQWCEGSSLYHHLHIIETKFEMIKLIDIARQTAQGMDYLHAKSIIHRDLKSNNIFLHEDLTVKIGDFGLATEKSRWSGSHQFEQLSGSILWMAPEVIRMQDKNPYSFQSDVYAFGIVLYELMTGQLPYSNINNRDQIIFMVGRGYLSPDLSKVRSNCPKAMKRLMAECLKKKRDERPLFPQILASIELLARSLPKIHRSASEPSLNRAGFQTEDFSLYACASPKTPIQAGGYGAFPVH

SMILES	IC50
CNS(=O)(=O)c1ccc(N(C)C)c(Nc2ncnc3ccc([N+](=O)[O-])cc23)c1	6300 nM
CNS(=O)(=O)c1ccc(N(C)C)c(Nc2ncnc3ccc(Cl)cc23)c1	400 nM
